Assay results published in article PMC8871760, “Assessment of Five Pesticides as Endocrine-Disrupting Chemicals: Effects on Estrogen Receptors and Aromatase” (International Journal of Environmental Research and Public …, 2022).

Target: T1, recombinant form of human aromatase (Homo sapiens, UniProt P11511)
T1 construct: gene CYP19A1; purified recombinant; assayed with equimolar human CPR; with NADPH--cytochrome P450 reductase
T1 sequence (P11511 1-503): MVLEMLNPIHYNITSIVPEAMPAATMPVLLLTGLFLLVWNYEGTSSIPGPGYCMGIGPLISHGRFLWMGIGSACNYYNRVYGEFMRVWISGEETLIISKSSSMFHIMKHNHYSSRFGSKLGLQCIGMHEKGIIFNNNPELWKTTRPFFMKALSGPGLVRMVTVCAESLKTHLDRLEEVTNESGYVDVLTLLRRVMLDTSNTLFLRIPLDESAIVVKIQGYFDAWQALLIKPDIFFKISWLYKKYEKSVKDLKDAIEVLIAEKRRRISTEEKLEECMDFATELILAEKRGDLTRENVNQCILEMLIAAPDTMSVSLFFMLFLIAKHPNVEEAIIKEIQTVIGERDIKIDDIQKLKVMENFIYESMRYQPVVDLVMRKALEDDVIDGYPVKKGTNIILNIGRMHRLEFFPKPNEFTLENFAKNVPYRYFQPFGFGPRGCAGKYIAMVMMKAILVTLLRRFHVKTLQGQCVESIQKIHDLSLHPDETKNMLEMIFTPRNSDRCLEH
T1 sequence (P16435 2-677 partner): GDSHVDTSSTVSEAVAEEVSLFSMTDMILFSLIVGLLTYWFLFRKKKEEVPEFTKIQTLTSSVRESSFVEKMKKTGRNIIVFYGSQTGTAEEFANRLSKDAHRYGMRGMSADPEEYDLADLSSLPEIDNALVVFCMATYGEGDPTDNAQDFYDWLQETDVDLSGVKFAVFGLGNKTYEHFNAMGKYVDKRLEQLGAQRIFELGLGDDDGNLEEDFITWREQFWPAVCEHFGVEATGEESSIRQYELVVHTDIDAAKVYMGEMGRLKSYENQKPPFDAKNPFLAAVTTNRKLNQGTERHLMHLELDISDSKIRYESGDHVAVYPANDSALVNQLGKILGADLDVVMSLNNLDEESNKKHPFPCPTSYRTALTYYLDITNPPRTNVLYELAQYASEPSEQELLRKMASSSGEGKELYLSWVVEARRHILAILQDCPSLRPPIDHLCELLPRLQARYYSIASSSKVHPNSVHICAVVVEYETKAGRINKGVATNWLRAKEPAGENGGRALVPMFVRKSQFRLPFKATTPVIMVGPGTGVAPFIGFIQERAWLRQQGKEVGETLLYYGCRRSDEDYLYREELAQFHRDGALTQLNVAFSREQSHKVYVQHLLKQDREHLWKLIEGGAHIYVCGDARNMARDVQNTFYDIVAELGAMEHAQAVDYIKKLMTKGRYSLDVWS
Assay: estrone ELISA of aromatase reaction
Format: biochemical
Details: read-out: Relative Activity (% of C+) / 5 × 10^-6 M
From the text: estrone ELISA of aromatase reaction on recombinant form of human aromatase

C/C(=N\C#N)N(C)Cc1ccc(Cl)nc1 [Acetamiprid] was tested, and the activity at 5 µM was 87.5 ± 17.6%.
CN/C(=N\[N+](=O)[O-])NCc1cnc(Cl)s1 [Clothianidin] gave an activity at 5 µM of 97.9 ± 5.2%.
CNC(=O)Oc1cc(C)c(SC)c(C)c1 [Methiocarb] was tested, and the activity at 5 µM was 90.9 ± 5.4%.
With CC(C)Oc1cc(-n2nc(C(C)(C)C)oc2=O)c(Cl)cc1Cl [Oxadiazon] the activity at 5 µM was 101 ± 16.7%.
Compound CN1COCN(Cc2cnc(Cl)s2)C1=N[N+](=O)[O-] [Thiamethoxam] has an activity at 5 µM of 95.6 ± 17.1%.
